Reference: patent publication US4504492A, “Pharmaceutical amides, and preparation, formulations and use thereof” (Burroughs Wellcome Co., priority 1981, dated 1985)
Read-outs that look alike come from different tables or passages of the source.

How the values were obtained:
`Enkephalinase` = target: T1, `Enkephalinase` (Mus musculus, UniProt Q61391); experiment: Activity ex vivo: `enkephalinase` activity in lung and brain homogenates of mice dosed i.p. with test compound; settings: for ED50: mouse, ip, 0.25 h; for Lung/Brain (ED50 ratio): ratio of apparent ED50 values for lung and brain, 15 min
T1 construct: The lung and brain (less cerebellum) were rapidly dissected, weighed and homogenised; from tissue; host or cells: mouse lung and brain (less cerebellum) homogenate
T1 sequence (Q61391 1-750): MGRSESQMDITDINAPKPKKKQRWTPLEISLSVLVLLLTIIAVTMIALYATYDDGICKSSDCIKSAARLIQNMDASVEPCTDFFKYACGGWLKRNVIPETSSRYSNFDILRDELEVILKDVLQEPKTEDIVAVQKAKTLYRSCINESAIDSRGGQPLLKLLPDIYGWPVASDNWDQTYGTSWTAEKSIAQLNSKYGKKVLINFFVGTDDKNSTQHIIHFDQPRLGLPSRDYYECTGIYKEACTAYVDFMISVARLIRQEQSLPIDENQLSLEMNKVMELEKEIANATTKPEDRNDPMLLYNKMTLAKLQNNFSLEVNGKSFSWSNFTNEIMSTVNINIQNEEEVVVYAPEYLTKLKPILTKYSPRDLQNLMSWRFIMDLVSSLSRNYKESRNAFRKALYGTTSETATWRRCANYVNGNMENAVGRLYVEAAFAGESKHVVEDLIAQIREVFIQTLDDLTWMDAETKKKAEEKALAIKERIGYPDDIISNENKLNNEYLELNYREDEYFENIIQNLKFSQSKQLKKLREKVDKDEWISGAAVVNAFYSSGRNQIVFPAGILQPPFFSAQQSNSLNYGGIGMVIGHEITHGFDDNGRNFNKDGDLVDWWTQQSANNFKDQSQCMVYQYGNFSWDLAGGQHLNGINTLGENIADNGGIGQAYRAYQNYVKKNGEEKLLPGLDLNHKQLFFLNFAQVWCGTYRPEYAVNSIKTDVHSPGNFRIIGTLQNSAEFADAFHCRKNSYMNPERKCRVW
Procedure: Mice were dosed i.p. with 0-30 mg/Kg of test compound suspended in 0.25% w/v celacol/0.85% w/v saline. The mice were killed 15 minutes after administration of the doses. The lung and brain (less cerebellum) were rapidly dissected, weighed and homogenised in 100 mM tris-HCl pH 7.4 buffer containing 1 uM Captopril to give a 9.1% W/V homogenate. `Enkephalinase` activity in the homogenate was measured by incubation at 37° C. with 100 μM [^3 H]-D-Tyr-D-Ala-L-Gly-L-Gly-L-Phe-L-leu for 10 minutes (lung) or 30 minutes (brain).

enkephalinase Al = target: T2, enkephalinase Al (Rattus norvegicus, UniProt P07861); experiment: Enkephalinase-inhibiting activity in vitro (3H-TGG generation from 3H-leucine enkephalin by purified enkephalinase Al); format: biochemical; settings: approximate, determined graphically; leucine enkephalin 5×10^-5 M, 30° C., 30 mins with enzyme; read-out: IC50 (concentration of test compound required for 50% inhibition of 3H-TGG generation)
T2 construct: from tissue; host or cells: rat striatum (membrane pellet, Triton X-100 solubilised, DEAE-cellulose and Sephacryl S-300)
T2 sequence (P07861 1-750): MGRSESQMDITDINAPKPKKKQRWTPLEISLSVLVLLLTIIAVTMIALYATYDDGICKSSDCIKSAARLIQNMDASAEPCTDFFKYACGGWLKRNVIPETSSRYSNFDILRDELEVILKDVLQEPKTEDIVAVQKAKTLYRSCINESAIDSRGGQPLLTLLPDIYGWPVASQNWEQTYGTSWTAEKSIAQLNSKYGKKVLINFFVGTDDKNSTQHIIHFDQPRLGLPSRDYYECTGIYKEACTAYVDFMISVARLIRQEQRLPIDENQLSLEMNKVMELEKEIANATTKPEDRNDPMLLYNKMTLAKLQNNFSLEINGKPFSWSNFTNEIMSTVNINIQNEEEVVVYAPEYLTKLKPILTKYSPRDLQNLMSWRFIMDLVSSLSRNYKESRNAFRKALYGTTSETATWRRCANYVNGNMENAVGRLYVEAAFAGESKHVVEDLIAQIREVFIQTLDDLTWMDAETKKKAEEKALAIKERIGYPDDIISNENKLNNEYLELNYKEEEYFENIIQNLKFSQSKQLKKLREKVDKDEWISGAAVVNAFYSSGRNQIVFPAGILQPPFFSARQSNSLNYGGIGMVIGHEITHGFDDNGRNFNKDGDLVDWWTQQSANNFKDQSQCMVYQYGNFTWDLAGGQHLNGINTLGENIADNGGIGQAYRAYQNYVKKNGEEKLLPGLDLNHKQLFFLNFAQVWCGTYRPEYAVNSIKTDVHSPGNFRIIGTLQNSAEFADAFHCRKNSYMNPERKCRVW
Procedure: The compounds were investigated for enkephalinase inhibiting activity using the following method.
Rats were killed by decapitation and the striata dissected out on ice. The pooled tissues were homogenised on ice-cold Tris/hydrochloric acid buffer (50 mM, pH 7.70, 30 ml per gram of tissue) and centrifuged (50,000 g, 15 mins). The resulting supernatent was discarded and the remaining pellet washed three times. The washed pellet was solubilised by resuspension in half the volume of buffer as before containing 1.0% (v/v) Triton X-100 and incubated at 37° C. for 45 mins. The suspension was then centrifuged at 100,000 g for 60 mins and the solubilised enzymes contained in the supernatant separated by DEAE-cellulose column chromatography. Enkephalinase Al was further purified by Sephacryl S.300 chromatograph.
Enkephalinase-inhibiting activity was estimated by the following procedure.
Separation of (a) unchanged ^3 H-leucine enkephalin and (b) ^3 H-Tyr-Gly-OH(^3 H-TGG), generated from (a) by enkephalinase Al in the incubation mixture was effected by thin layer chromatography (plastic silica gel plates of 0.1 mm layer thickness, solvent system ethyl acetate:propan-2-ol:5% (v/v) acetic acid, 2:2:1) using solutions of the cold compounds as carriers. After drying the materials were visualized with ninhydrin and appropriate areas of the plates cut out and placed in scintillation vials containing 50% methanol/0.1M hydrochloric acid to elute the ^3 H label. Bioflor reagent (10 ml) was then added and the radioactivity determined by liquid scintillation counting.

ACE and enkephalinase = settings: specificity for ACE over enkephalinase; Swerts et al; cited from earlier work
[1] = lung homogenate, 15 minutes after administration, read-out: Apparent ED50 Lung
[2] = brain (less cerebellum) homogenate, 15 minutes after administration, read-out: Apparent ED50 Brain

SMILES: CC(C)C[C@H](NC(=O)C(Cc1ccccc1)C(=O)NO)C(=O)OC(C)(C)C (stereo partly drawn) [Compound 6, Tert-butyl N-[(DL)-2-hydroxycarbamoyl)-3-phenylpropanoyl]-L-leucinate]
- Apparent ED50 Brain (`Enkephalinase`; brain (less cerebellum) homogenate, 15 minutes after administration): No inhibn. at 26.5
- ED50 (`Enkephalinase`; [1]): > 26.5 µmol/kg

SMILES: CCOC(=O)[C@H](CC(C)C)NC(=O)C(Cc1ccccc1)C(=O)NO (stereo partly drawn) [Compound 4, Ethyl N-[(DL)-2-hydroxycarbamoyl)-3-phenylpropanoyl]-L-leucinate]
- ED50 (`Enkephalinase`; [2]): > 85.7 µmol/kg
- ED50 (`Enkephalinase`; [1]): 8.6 µmol/kg
- Lung/Brain (ED50 ratio) (`Enkephalinase`): > 10

SMILES: COc1ccc(CC(C(=O)NO)C(=O)N[C@@H](CC(C)C)C(=O)O)cc1 (stereo partly drawn) [Compound 3, N-[2-(N-Hydroxycarbamoyl)-3-(4-methoxyphenyl)-propanoyl]-L-leucine]
- IC50 (enkephalinase Al): 750 nM

SMILES: CC(C)C[C@H](NC(=O)C(Cc1ccc(C(C)C)cc1)C(=O)NO)C(=O)O (stereo partly drawn) [Compound 2, N-[2-(N-Hydroxycarbamoyl)-3-(4-isopropylphenyl)propanoyl]-L-leucine]
- IC50 (enkephalinase Al): 120 nM

SMILES: CC(C)C[C@H](NC(=O)C(Cc1ccc(Br)cc1)C(=O)NO)C(=O)O (stereo partly shown) [Compound 10]
- IC50 (enkephalinase Al): 60 nM

SMILES: C[C@H](CS)C(=O)N1CCC[C@H]1C(=O)O [Captopril, 1-(D-3-mercapto-2-methylpropanoyl)-L-proline (S,S)]
- concentration required to inhibit ACE by 50% lower than that required for the same inhibition of enkephalinase (ACE and enkephalinase): approximately 1000 fold

SMILES: O=C(O)CNC(=O)C(CS)Cc1ccccc1 (racemic) [Thiorphan, (DL-3-mercapto-2-benzylpropanoyl)-glycine, reference compound]
- ED50 (`Enkephalinase`; [2]): 3.92 µmol/kg
- ED50 (`Enkephalinase`; [1]): 0.69 µmol/kg

SMILES: CC(C)C[C@H](NC(=O)C(Cc1ccc([N+](=O)[O-])cc1)C(=O)NO)C(=O)O (stereo partly shown) [Compound 9]
- IC50 (enkephalinase Al): 520 nM

SMILES: CC(C)C[C@H](NC(=O)C(Cc1ccccc1)C(=O)NO)C(=O)O (stereo partly drawn) [Compound 1, N-[2-(N-Hydroxycarbamoyl)-3-phenylpropanoyl]-L-leucine]
- IC50 (enkephalinase Al): 19 nM
- ED50 (`Enkephalinase`; [2]): 14.6 µmol/kg
- ED50 (`Enkephalinase`; [1]): 6.1 µmol/kg
- Lung/Brain (ED50 ratio) (`Enkephalinase`): 2.4
